From article PMC8119466, “A screen of FDA-approved drugs identifies inhibitors of protein tyrosine phosphatase 4A3 (PTP4A3 or PRL-3)” (Scientific Reports, 2021)
Counter-ions that a name gives are not always drawn.

What was measured:
recombinant PRL-2 = biological target: T1, recombinant PRL-2 (Homo sapiens, UniProt Q12974); assay: In vitro phosphatase assay (DiFMUP hydrolysis), PRL-2; assay type: biochemical; details: for % Phosphatase Activity (compared to DMSO) PRL-2: FDA-approved drug screen;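 on all read-outs here: PRL-2 activity read as DiFMUP hydrolysis after 20 min at room temperature with drug, enzyme first pre-reduced at 4 °C for 20 min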
T1 construct: 6xHis (N, cleaved yes); made in house; host or cells: E. coli One Shot BL21 Star
T1 sequence (Q12974 1-167): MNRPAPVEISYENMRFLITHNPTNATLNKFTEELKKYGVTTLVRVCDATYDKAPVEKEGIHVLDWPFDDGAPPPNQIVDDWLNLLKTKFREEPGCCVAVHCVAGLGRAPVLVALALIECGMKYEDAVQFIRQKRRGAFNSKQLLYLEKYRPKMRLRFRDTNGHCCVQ

recombinant PRL-3 = biological target: T2, recombinant PRL-3 (Homo sapiens, UniProt O75365); assay: In vitro phosphatase assay (DiFMUP hydrolysis), PRL-3; assay type: biochemical; details: FDA-approved drug screen; compared to DMSO
T2 construct: 6xHis (N, cleaved yes); made in house; host or cells: E. coli One Shot BL21 Star
T2 sequence (O75365 whole entry): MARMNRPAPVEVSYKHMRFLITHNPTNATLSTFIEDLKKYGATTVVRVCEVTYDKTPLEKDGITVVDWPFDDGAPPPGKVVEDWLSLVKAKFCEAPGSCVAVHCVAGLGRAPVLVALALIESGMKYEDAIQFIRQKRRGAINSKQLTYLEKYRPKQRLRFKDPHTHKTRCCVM

Compound	selectivity in inhibiting PRL-2 over other PRLs (recombinant PRL-2; drug 40 µM)	% Phosphatase Activity (compared to DMSO) PRL-2 (recombinant PRL-2) [%]	% Phosphatase Activity (compared to DMSO) PRL-3 (recombinant PRL-3) [%]
CC1(C)CCC(CN2CCN(c3ccc(C(=O)NS(=O)(=O)c4ccc(NCC5CCOCC5)c([N+](=O)[O-])c4)c(Oc4cnc5[nH]ccc5c4)c3)CC2)=C(c2ccc(Cl)cc2)C1 [ABT-199, reference compound]	demonstrated selectivity in inhibiting PRL-2	–	–
CCN(CC)CCOC(=O)C(c1ccccc1)c1ccccc1 [Adiphenine HCl]	–	101	82
CN(C)C/C=C/C(=O)Nc1cc2c(Nc3ccc(F)c(Cl)c3)ncnc2cc1O[C@H]1CCOC1 [Afatinib (BIBW2992)]	–	106	85
CC1(C)S[C@@H]2[C@H](NC(=O)[C@H](N)c3ccc(O)cc3)C(=O)N2[C@H]1C(=O)O [Amoxicillin]	–	150	106
Cc1c(-c2ccc(O)cc2)n(Cc2ccc(OCCN3CCCCCC3)cc2)c2ccc(O)cc12 [Bazedoxifene Acetate]	–	106	–
CCC1(C)CC(=O)NC(=O)C1 [Bemegride]	–	97	81
O=C(O)c1ccccc1 [Benzoic Acid]	–	101	76
O=C(O)CCCN1CCC(O[C@@H](c2ccc(Cl)cc2)c2ccccn2)CC1.O=S(=O)(O)c1ccccc1 [Bepotastine Besilate]	–	113	98
COc1cc2c(cc1OC)[C@@]13CCN4CC5=CCO[C@H]6CC(=O)N2[C@H]1[C@H]6[C@H]5C[C@H]43 [Brucine]	–	86	83
COc1cc(OC)c(C(=O)CCCN2CCCC2)c(OC)c1.Cl [Buflomedil HCl]	–	118	87
COc1cc2nccc(Oc3ccc(NC(=O)C4(C(=O)Nc5ccc(F)cc5)CC4)cc3)c2cc1OC [Cabozantinib (XL184, BMS-907351)]	–	96	75
COc1cc2nccc(Oc3ccc(NC(=O)C4(C(=O)Nc5ccc(F)cc5)CC4)cc3)c2cc1OC.O=C(O)C[C@H](O)C(=O)O [Cabozantinib malate (XL184)]	–	115	96
Cc1ccc([C@@H]2O[C@H](CO)[C@@H](O)[C@H](O)[C@H]2O)cc1Cc1ccc(-c2ccc(F)cc2)s1 [Canagliflozin]	–	106	90
CC1(C)S[C@@H]2[C@H](NC(=O)C(C(=O)O)c3ccccc3)C(=O)N2[C@H]1C(=O)O (stereo partly drawn) [Carbenicillin disodium]	–	101	87
CN(C)CCC(c1ccc(Cl)cc1)c1ccccn1 (stereo not drawn) [Chlorpheniramine Maleate]	–	103	104
CN(C)CCCN1c2ccccc2Sc2ccc(Cl)cc21 [Chlorpromazine HCl]	–	109	81
Cc1cc(C2CCCCC2)n(O)c(=O)c1 [Ciclopirox]	–	111	76
COc1ccc([C@]2(C#N)CC[C@@H](C(=O)O)CC2)cc1OC1CCCC1 [Cilomilast]	–	99	88
C[C@@H](NCCCc1cccc(C(F)(F)F)c1)c1cccc2ccccc12 [Cinacalcet HCl]	–	114	81
CC[C@H]1OC(=O)[C@H](C)[C@@H](O[C@H]2C[C@@](C)(OC)[C@@H](O)[C@H](C)O2)[C@H](C)[C@@H](O[C@@H]2O[C@H](C)C[C@H](N(C)C)[C@H]2O)[C@](C)(OC)C[C@@H](C)C(=O)[C@H](C)[C@@H](O)[C@]1(C)O [Clarithromycin]	–	111	86
Clc1ccccc1C(c1ccccc1)(c1ccccc1)n1ccnc1 [Clotrimazole]	–	108	88
C[C@@H](Oc1cc(-c2cnn(C3CCNCC3)c2)cnc1N)c1c(Cl)ccc(F)c1Cl [Crizotinib (PF-02341066)]	–	119	81
CN1CCC(=C2c3ccccc3C=Cc3ccccc32)CC1 [Cyproheptadine HCl]	–	112	93
N[C@@H]1CON=C1O [D-Cycloserine]	–	101	95
C[N+](C)(C)CCCCCCCCCC[N+](C)(C)C [Decamethonium Bromide]	–	118	71
